Target: human, KCNT1 (Homo sapiens (Human), UniProt Q5JUK3)
Experiment: FLIPR Tl/K Flux Assay
Type: cell-based
Conditions: HEK293 cells stably expressing human KCNT1; Tl+ flux stimulated with EC80 of agonist Loxapine
Procedure: HEK293 cells stably expressing human, KCNT1 were cultured in DMEM, 10% FBS, 100 U/mL penicillin-streptomycin and […] puromycin for selection purposes. One day before the assay, cells were detached using TrypLE™ Express and counted using a cell counter. Only cells with >85% viability were used for the assay. […] The cells were incubated overnight at 37° C., 5% (v/v) CO2.
On the day of the assay, the reagents were prepared following the FLIPR® Potassium Assay Kit manual: prepare 2× dye solution, dilute the dye with assay buffer (20 mM HEPES in 1× HBSS, PH7.4), addition of probenecid to a final concentration of 5 mM, and vortexed vigorously for 1-2 minutes. The cell plate was flicked to remove medium and tapped on paper towels to remove excess media. […] The cell plate was moved to a plate shaker, agitated at 600 rpm for two minutes, and then incubated at 25° C. for one hour.
The compounds were prepared in DMSO and transferred to a 384-well compound plate (PP, low binding), referred to as a source plate. Reference agonist (300 nM) compound and test inhibitor (10 mM) compounds were added to the compound plate and a 4-fold serial dilution was performed in DMSO. Using an ECHO dispenser, compounds were dispensed at 90 nL/well from the source plate to a 384-well compound plate (PP, low binding). After the dispensing was complete, 30 µL/well assay buffer was added to the compound plate and mixed for two minutes on a plate shaker. The cell plate, compound plate, and tips were loaded into the FLIPR instrument, and a transfer of 10 μl of 3× compound to the cell plate was initiated. The treated cell plate was kept at in the dark at 25° C. for 30 minutes. Chloride-free stimulation buffer containing 4× 2 mM Tl+ and 4×EC80 of agonist Loxapine was loaded into a 384-well compound plate (PP, low binding). After the 30-minute incubation, the cell plate, compound plate containing stimulation buffer, and FLIPR tips were loaded into the FLIPR instrument. After a baseline read, the FLIPR initiates a transfer of 10 μL of stimulation buffer containing Loxapine to the cell plate. The plate was read for 160 sec with 1 second interval reads to obtain the data.
The normalized fluorescence reading (RFU) was calculated as shown follow, while Fmax and Fmin stand for maximum and minimum of signal during defined time window. The IC50 was calculated by fitting % inhibition against log of compound concentrations with Hill equation using XLfit.

human, KCNT1, sequence (Q5JUK3 whole entry): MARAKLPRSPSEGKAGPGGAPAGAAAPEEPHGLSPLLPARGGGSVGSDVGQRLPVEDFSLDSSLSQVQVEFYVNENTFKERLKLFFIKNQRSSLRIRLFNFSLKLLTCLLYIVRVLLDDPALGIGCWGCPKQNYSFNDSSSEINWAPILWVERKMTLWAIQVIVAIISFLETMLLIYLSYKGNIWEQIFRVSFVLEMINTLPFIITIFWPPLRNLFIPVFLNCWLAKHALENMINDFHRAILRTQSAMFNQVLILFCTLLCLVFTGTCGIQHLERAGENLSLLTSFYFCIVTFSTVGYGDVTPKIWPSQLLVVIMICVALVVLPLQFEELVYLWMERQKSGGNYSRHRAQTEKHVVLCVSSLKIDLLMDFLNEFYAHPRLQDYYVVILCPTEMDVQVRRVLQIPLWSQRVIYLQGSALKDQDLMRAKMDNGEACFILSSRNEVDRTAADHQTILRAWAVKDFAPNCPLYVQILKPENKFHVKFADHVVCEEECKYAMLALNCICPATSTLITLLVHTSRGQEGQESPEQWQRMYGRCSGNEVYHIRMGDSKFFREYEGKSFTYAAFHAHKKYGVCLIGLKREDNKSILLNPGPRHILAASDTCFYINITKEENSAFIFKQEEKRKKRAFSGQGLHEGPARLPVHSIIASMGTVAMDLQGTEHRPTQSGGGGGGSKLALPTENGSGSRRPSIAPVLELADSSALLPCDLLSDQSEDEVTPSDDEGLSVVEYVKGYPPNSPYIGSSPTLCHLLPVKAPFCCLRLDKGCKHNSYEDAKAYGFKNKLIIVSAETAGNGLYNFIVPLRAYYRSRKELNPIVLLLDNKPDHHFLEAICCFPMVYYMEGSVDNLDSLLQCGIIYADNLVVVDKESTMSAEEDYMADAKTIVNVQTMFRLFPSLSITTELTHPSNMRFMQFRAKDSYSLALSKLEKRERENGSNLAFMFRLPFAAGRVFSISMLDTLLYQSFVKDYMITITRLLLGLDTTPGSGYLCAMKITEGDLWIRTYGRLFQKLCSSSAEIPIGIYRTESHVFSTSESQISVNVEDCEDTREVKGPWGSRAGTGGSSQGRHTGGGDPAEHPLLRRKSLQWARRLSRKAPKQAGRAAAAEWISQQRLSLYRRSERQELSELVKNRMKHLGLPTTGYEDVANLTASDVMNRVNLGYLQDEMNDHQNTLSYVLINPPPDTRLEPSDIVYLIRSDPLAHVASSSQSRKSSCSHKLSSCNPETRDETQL

IC50 [µM]	Compound
< 0.25	Cn1nc(C(F)(F)F)cc1C(=O)NC1CCCCn2nc(-c3ccnc(C4CC4)c3)cc21 (single isomer, unassigned) [Compound I-67]
< 0.25	O=C(N[C@H]1CCCCc2nn(-c3ccnc(C(F)(F)F)c3)cc21)c1cc(Cl)cc(C(F)(F)F)c1 (single isomer, unassigned) [Compound I-109a]
< 0.25	Cc1cc(F)cc(C(=O)N[C@H]2CCc3nn(-c4ccnc(C(F)(F)F)c4)cc32)c1 (single isomer, unassigned) [Compound I-384a]
< 0.25	Cn1cc(C(=O)N[C@H]2CCCn3nc(-c4ccnc(C(F)(F)F)c4)cc32)c(C(F)(F)F)c1 (single isomer, unassigned) [Compound I-409a]
> 1	COc1cc(-c2cc3n(n2)CCC3NC(=O)c2nc(C(F)(F)F)nn2C)ccn1 (single isomer, unassigned) [Compound I-473]
< 0.25	CC(F)(F)c1cc(-c2nc3c(o2)CCCC3NC(=O)c2cc(C(F)(F)F)n(C(F)F)n2)ccn1 (single isomer, unassigned) [Compound I-534]
< 0.25	CC(F)(F)c1cc(-c2nc3c(o2)CCCC3NC(=O)c2cn(C(F)(F)F)nc2C(F)F)ccn1 (single isomer, unassigned) [Compound I-535]
< 0.25	Cn1nc(C(F)(F)F)cc1C(=O)N[C@H]1CCCc2nc(-c3ccnc(C(F)(F)F)c3)ccc21 (single isomer, unassigned) [I-149*]
> 1	O=C(N[C@H]1CCCc2cnc(-c3ccnc(C(F)(F)F)c3)cc21)c1cc2cccnn2c1 (single isomer, unassigned) [I-268*]
> 1	COc1cc(C(=O)N[C@H]2CCCc3cnc(-c4ccnc(C(F)(F)F)c4)cc32)ccn1 (single isomer, unassigned) [I-269*]
> 1	O=C(N[C@H]1CCCc2cnc(-c3ccnc(C(F)(F)F)c3)cc21)c1cncc(C(F)(F)F)n1 (single isomer, unassigned) [I-270*]
0.5 to 1	Cc1nc(C(F)(F)F)oc1C(=O)N[C@H]1CCCc2cnc(-c3ccnc(C(F)(F)F)c3)cc21 (single isomer, unassigned) [I-271*]
< 0.25	Cn1nc(C(F)(F)F)cc1C(=O)N[C@H]1CCCCn2nc(-c3ccnc(C(F)(F)F)c3)nc21 (single isomer, unassigned) [I-272*]
< 0.25	N#Cc1cccc(C(=O)NC2CCCn3cc(-c4ccnc(C(F)(F)F)c4)cc32)c1 (single isomer, unassigned) [I-309*]
< 0.25	N#Cc1cccc(C(=O)N[C@H]2CCn3cc(-c4ccnc(C(F)(F)F)c4)cc32)c1 (stereo in doubt) [Compound I-276a, 3-Cyano-N-(6-(2-(trifluoromethyl)pyridin-4-yl)-2,3-dihydro-1H-pyrrolizin-1-yl)benzamide]

Continued, compound first:

Compound	IC50 [µM]
Cc1ccccc1C(=O)NC1CCCc2nn(-c3ccnc(C(F)(F)F)c3)cc21 (racemic) [Compound I-29, (rac)-2-Methyl-N-(2-(2-(trifluoromethyl)pyridin-4-yl)-4,5,6,7-tetrahydro-2H-indazol-4-yl)benzamide]	> 1
CCOc1cc(-n2cc3c(n2)CCCC3NC(=O)c2ccc3ccccc3c2)ccn1 (racemic) [Compound I-30, (rac)-N-(2-(2-Ethoxypyridin-4-yl)-4,5,6,7-tetrahydro-2H-indazol-4-yl)-2-naphthamide]	0.5 to 1
O=C(NC1CCCc2nn(-c3ccnc(C(F)(F)F)c3)cc21)c1ccccn1 (racemic) [Compound I-31, (rac)-N-(2-(2-(Trifluoromethyl)pyridin-4-yl)-4,5,6,7-tetrahydro-2H-indazol-4-yl)picolinamide]	> 1
O=C(NC1CCCc2nn(-c3ccnc(C(F)(F)F)c3)cc21)c1cccnc1 (racemic) [Compound I-32, (rac)-N-(2-(2-(Trifluoromethyl)pyridin-4-yl)-4,5,6,7-tetrahydro-2H-indazol-4-yl)nicotinamide]	> 1
Cn1nc(C(F)(F)F)cc1C(=O)NC1CCCc2nn(-c3ccc(=O)[nH]c3)cc21 (racemic) [Compound I-33, (rac)-1-Methyl-N-(2-(6-oxo-1,6-dihydropyridin-3-yl)-4,5,6,7-tetrahydro-2H-indazol-4-yl)-3-(trifluoromethyl)-1H-pyrazole-5-carboxamide]	> 1
Cn1nc(C(F)(F)F)cc1C(=O)NC1CCCc2nn(-c3ccn4ccnc4c3)cc21 (racemic) [Compound I-34, (rac)-N-(2-(Imidazo[1,2-a]pyridin-7-yl)-4,5,6,7-tetrahydro-2H-indazol-4-yl)-1-methyl-3-(trifluoromethyl)-1H-pyrazole-5-carboxamide]	> 1
Cn1nc(C(F)(F)F)cc1C(=O)NC1CCCc2nn(-c3cc[nH]c(=O)c3)cc21 (racemic) [Compound I-35, (rac)-1-Methyl-N-(2-(2-oxo-1,2-dihydropyridin-4-yl)-4,5,6,7-tetrahydro-2H-indazol-4-yl)-3-(trifluoromethyl)-1H-pyrazole-5-carboxamide]	> 1
O=C(NC1CCCc2nn(-c3ccnc(C(F)(F)F)c3)cc21)c1ccncc1 (racemic) [Compound I-36, (rac)-N-(2-(2-(Trifluoromethyl)pyridin-4-yl)-4,5,6,7-tetrahydro-2H-indazol-4-yl)isonicotinamide]	> 1
Cn1nc(C(F)(F)F)cc1C(=O)NC1CCCc2nn(-c3ccn4nccc4c3)cc21 (racemic) [Compound I-38, (rac)-1-Methyl-N-(2-(pyrazolo[1,5-a]pyridin-5-yl)-4,5,6,7-tetrahydro-2H-indazol-4-yl)-3-(trifluoromethyl)-1H-pyrazole-5-carboxamide]	> 1
Cn1nc(C(F)(F)F)cc1C(=O)NC1CCCc2nn(-c3ccc(=O)n(C)c3)cc21 (racemic) [Compound I-39, (rac)-1-Methyl-N-(2-(1-methyl-6-oxo-1,6-dihydropyridin-3-yl)-4,5,6,7-tetrahydro-2H-indazol-4-yl)-3-(trifluoromethyl)-1H-pyrazole-5-carboxamide]	> 1
Cn1nc(C(F)(F)F)cc1C(=O)NC1CCCc2nn(-c3ccn(C)c(=O)c3)cc21 (racemic) [Compound I-40, (rac)-1-Methyl-N-(2-(1-methyl-2-oxo-1,2-dihydropyridin-4-yl)-4,5,6,7-tetrahydro-2H-indazol-4-yl)-3-(trifluoromethyl)-1H-pyrazole-5-carboxamide]	> 1
Cn1nc(C(F)(F)F)cc1C(=O)NC1CCCn2nc(-c3ccnc(C(F)(F)F)c3)cc21 (racemic) [Compound I-42, (rac)-1-Methyl-3-(trifluoromethyl)-N-(2-(2-(trifluoromethyl)pyridin-4-yl)-4,5,6,7-tetrahydropyrazolo[1,5-a]pyridin-4-yl)-1H-pyrazole-5-carboxamide]	< 0.25
Cn1nc(C(F)(F)F)cc1C(=O)NC1CCCCc2nn(-c3ccnc(C(F)(F)F)c3)cc21 (racemic) [Compound I-45, (rac)-1-Methyl-3-(trifluoromethyl)-N-(2-(2-(trifluoromethyl)pyridin-4-yl)-2,4,5,6,7,8-hexahydrocyclohepta[c]pyrazol-4-yl)-1H-pyrazole-5-carboxamide]	< 0.25
CCOc1cc(-n2cc3c(n2)CCCC3NC(=O)c2cc(C(F)(F)F)nn2CC)ccn1 (racemic) [Compound I-55, (rac)-N-(2-(2-Ethoxypyridin-4-yl)-4,5,6,7-tetrahydro-2H-indazol-4-yl)-1-ethyl-3-(trifluoromethyl)-1H-pyrazole-5-carboxamide]	< 0.25
CCOc1cc(-n2cc3c(n2)CCCCC3NC(=O)c2cccc(C)c2)ccn1 (racemic) [Compound I-59, (rac)-N-(2-(2-Ethoxypyridin-4-yl)-2,4,5,6,7,8-hexahydrocyclohepta[c]pyrazol-4-yl)-3-methylbenzamide]	< 0.25
CCOc1cc(-n2cc3c(n2)CCCCC3NC(=O)c2cccc(C(F)(F)F)c2)ccn1 (racemic) [Compound I-61, (rac)-N-(2-(2-Ethoxypyridin-4-yl)-2,4,5,6,7,8-hexahydrocyclohepta[c]pyrazol-4-yl)-3-(trifluoromethyl)benzamide]	< 0.25
Cn1nc(C(F)(F)F)cc1C(=O)NC1CCc2nn(-c3ccnc(C(F)(F)F)c3)cc2C1 (racemic) [Compound I-63, (rac)-1-Methyl-3-(trifluoromethyl)-N-(2-(2-(trifluoromethyl)pyridin-4-yl)-4,5,6,7-tetrahydro-2H-indazol-5-yl)-1H-pyrazole-5-carboxamide]	< 0.25
Cn1nc(C(F)(F)F)cc1C(=O)N[C@H]1CCc2nn(-c3ccnc(C(F)(F)F)c3)cc21 [Compound I-1a, (S)-1-Methyl-3-(trifluoromethyl)-N-(2-(2-(trifluoromethyl)pyridin-4-yl)-2,4,5,6-tetrahydrocyclopenta[c]pyrazol-4-yl)-1H-pyrazole-5-carboxamide]	< 0.25

Source: patent publication US20250313548A1 (Actio Biosciences, Inc., priority 2023, published 2025)
